# Test results reported in patent US3943256A (priority 1974, dated 1976).
# Entries after “also recorded” stand apart in the source; their conditions may differ. Where two headings read alike, the source gives them in different places.
# Legend:
# [1] = tested on: mouse; parameters: species or system male CF-1 mice; conditions: in vivo
# [2] = tested on: dogs; conditions: dog, in vivo
# [3] = tested on: mouse; parameters: species or system male CF-1 mice; unit not given here; conditions: in vivo
# [4] = tested on: mouse; conditions: in vivo; cited from earlier work
# [5] = in vivo; cited from earlier work
# [6] = tested on: dogs; conditions: dog, in vivo; cited from earlier work
# [7] = tested on: mouse; conditions: in vivo
# [8] = tested on: flurothyl induced convulsions; conditions: in vivo; cited from earlier work
structure (smiles),measurement,setting,value
"FC(F)OCC(F)(F)C(F)F [I, Difluoromethyl 2,2,3,3-tetrafluoropropyl ether]","MOUSE […]., VOL. %",[1],1.0 VOL. %
same,[…] (type of convulsions),[1],CLONIC CONVULSIONS
"FC(F)OCC(F)(F)C(F)(F)F [II, Difluoromethyl 2,2,3,3,3-pentafluoropropyl ether]","MOUSE […]., VOL. %",[1],1.4 VOL. %
same,[…] (type of convulsions),[1],"CLONIC AND TONIC CONVULSIONS, CATALEPSY"
"FC(F)OC(F)(F)C(F)C(F)(F)F (stereo not drawn) [III, Difluoromethyl 1,1,2,3,3,3-hexafluoropropyl ether]","MOUSE […]., VOL. %",[1],2.0 VOL. %
"FC(F)OC(F)(C(F)F)C(F)F [IV, Difluoromethyl 1,1,2,3,3-pentafluoro-2-propyl ether]",convulsant effect in dogs,[2],OPISTHOTONOID
same,"MOUSE […]., VOL. %",[1],1.2 VOL. %
same,[…] (type of convulsions),[1],C[…] SEDATION
FC(F)OC(F)C(F)(F)C(F)(F)F (stereo not drawn) [IX],MOUSE AC50,[3],4.3
"FCOCC(F)(F)C(F)(F)F [V, Fluoromehtyl 2,2,3,3,3-pentafluoropropyl ether]","MOUSE […]., VOL. %",[1],1.5 VOL. %
same,[…] (type of convulsions),[1],METRAZOLE-LIKE CONVULSIONS
"FC(F)(F)COCC(F)(F)F [VII, flurothyl]",[…] (type of convulsions),[1],CLONIC AND TONIC CONVULSIONS
same,time to clonic and tonic convulsions,[1],30 s
same,"MOUSE […]., VOL. %",[4],≤ 0.25 VOL. %
FC(F)OC(F)C(F)(F)C(F)F (stereo not drawn) [VIII],convulsant effect in dogs,[2],NON[…] DOGS
same,MOUSE AC50,[3],0.61
FC(F)C(F)(F)COC(F)(F)F [VI],convulsions and death,[5],VIOLENT C[…] DEATH
same,time to violent convulsions and death,[5],30 to 120 s
same,"MOUSE […]., VOL. %",[1],≤ 0.5 VOL. %
FCOC(F)(F)C(F)C(F)(F)F (stereo not drawn) [XIII],MOUSE AC50,[3],2.1
FC(F)OC(C(F)F)C(F)F [XII],MOUSE AC50,[3],0.64
FCOC(F)(C(F)F)C(F)(F)F (stereo not drawn) [XIV],convulsant effect in dogs,[2],NON[…] DOGS
same,MOUSE AC50,[3],2.5
"COCC(F)(F)C(F)(F)F [XIX, methyl 2,2,3,3,3-pentafluoropropyl ether]",effect in dogs,[6],EXTENSOR RIGIDITY OF HIND LEGS; also recorded: TREMORS
same,MOUSE AC50,[3],11
FC(F)OC(C(F)F)C(F)(F)F (stereo not drawn) [XI],MOUSE AC50,[3],0.84
"COC(F)(F)C(F)C(F)(F)F (stereo not drawn) [XVIII, methyl 1,1,2,3,3,3-hexafluoropropyl ether]",MOUSE AC50,[3],3.9
COC(F)(F)C(F)(F)C(F)(F)F [XVII],cause of death,[7],DEATH DUE TO ANOXIA
FCOC(C(F)F)C(F)(F)F (stereo not drawn) [XVI],MOUSE AC50,[3],0.84
FCOC(C(F)(F)F)C(F)(F)F [XV],convulsant effect in dogs,[2],NON[…] DOGS
same,MOUSE AC50,[3],1.4
COC(C(F)F)C(F)F [XXIII],MOUSE AC50,[3],1.4
COC(C(F)F)C(F)(F)F (stereo not drawn) [XXII],MOUSE AC50,[3],1.5
COC(C(F)(F)F)C(F)(F)F [XXI],convulsant effect in dogs,[2],NON[…] DOGS
same,MOUSE AC50,[3],2.2
same,antagonism to flurothyl induced convulsions,[8],ANTAGONIST
COCC(F)(F)C(F)F [XX],MOUSE AC50,[3],2.5
FC(F)OC(C(F)(F)F)C(F)(F)F [X],convulsant effect in dogs,[2],NON[…] DOGS
same,MOUSE AC50,[3],2.5
